In patent US5382584A, “Adenosine re-uptake inhibiting derivatives of diphenyl oxazoles, thiazoles and imidazoles” (Bristol-Myers Squibb Company, priority 1994, dated 1995):
Structures can show the parent of a compound that is named as a salt.

Assay: neuroprotective activity of single enantiomers (test not specified)
Text: A chiral synthetic procedure was also developed to provide single enantiomers of certain stereoisomeric compounds of Formula I. The procedure is illustrated in Scheme III. This synthesis results in a Formula I compound with a chiral center in the piperazine ring. […] While both enantiomers were neuroprotective, the S-(-)-enantiomer had about 30 times the activity of the R-(+)-enantiomer. [drawing 11]

| SMILES | neuroprotection | activity relative to the R-(+)-enantiomer (neuroprotective activity) |
| --- | --- | --- |
| Cl.Cl.Cl.NC(=O)[C@H]1CN(Cc2nc(-c3ccccc3)c(-c3ccccc3)o2)CCN1CC(=O)Nc1c(Cl)cc(N)cc1Cl.O [R-(+)-enantiomer, R-(+)-2-(aminocarbonyl)-N-(4-amino-2,6-dichlorophenyl)-4-[(4,5-diphenyl-2-oxazolyl)methyl]-1-piperazineacetamide trihydrochloride monohydrate] | neuroprotective |  |
| NC(=O)[C@@H]1CN(Cc2nc(-c3ccccc3)c(-c3ccccc3)o2)CCN1CC(=O)Nc1c(Cl)cc(N)cc1Cl [S-(-)-enantiomer, S-(-)-2-(aminocarbonyl)-N-(4-amino-2,6-dichlorophenyl)-4-[(4,5-diphenyl-2-oxazolyl)methyl]-1-piperazineacetamide Trihydrochloride] | neuroprotective | about 30 times |
